Results reported in ChEMBL document CHEMBL4725408, “Antibacterial Spiropyrimidinetriones with N-Linked Azole Substituents on a Benzisoxazole Scaffold Targeting DNA Gyrase” (J Med Chem, 2020).
Converted amounts (≈) assume the structure as drawn.

Assays:
Escherichia coli = test: Antibacterial activity against Escherichia coli ARC523 by broth microdilution method; type: functional
[1] = Inhibition of recombinant Escherichia coli DNA gyrase AB expressed in Escherichia coli BL21 (DE3) using relaxed pJT519 DNA as substrate preincubated for 20 mins followed by 5'-BODIPY-TMR-TTCTTCTTCT addition and measured after 1 hr by fluorescence anisotropy
[2] = n-octanol/phosphate buffer partition coefficient, log D of the compound at pH 7.4 measured after 1 hr by UV-LC/MS based shake flask method; type: physicochemical
Haemophilus influenzae = test: Antibacterial activity against Haemophilus influenzae ARC737 by broth microdilution method; type: functional
[3] = Solubility of the compound by high throughput solubility assay; type: physicochemical
L5178Y = test: Genotoxicity in mouse L5178Y cells using DAPI staining by microscopy based micronucleation assay; type: toxicity, cell-based
Staphylococcus aureus [4] = test: Antibacterial activity against methicillin sensitive Staphylococcus aureus ARC516 by broth microdilution method; type: functional
Streptococcus pyogenes = test: Antibacterial activity against Streptococcus pyogenes ARC838 by broth microdilution method; type: functional
Streptococcus pneumoniae = test: Antibacterial activity against Streptococcus pneumoniae ARC548 by broth microdilution method; type: functional
Staphylococcus aureus [5] = test: Antibacterial activity against methicillin sensitive Staphylococcus aureus ARC516 in presence of human serum by broth microdilution method; type: functional
Staphylococcus aureus [6] = test: Antibacterial activity against methicillin/quinolone-resistant Staphylococcus aureus ARC517 by broth microdilution method; type: functional
[7] = Protein binding in human plasma assessed as unbound fraction at 10 uM measured after 16 hrs by LC-MS/MS based equilibrium dialysis method; type: ADME, cell-free

Structure (SMILES)	MIC (Escherichia coli) [µM]	IC50 [1] [µM]	logD at 1 h [2]	MIC (Haemophilus influenzae) [µM]	solubility [3] [µM]	NOAEL (L5178Y) [µM]	MIC (Staphylococcus aureus [4]) [µM]	MIC (Streptococcus pyogenes) [µM]	MIC (Streptococcus pneumoniae) [µM]	MIC (Staphylococcus aureus [5]) [µM]	MIC (Staphylococcus aureus [6]) [µM]	fraction unbound at 16 h, 10 µM [7]
C[C@@H]1CN2c3c(cc4c(-n5ncnc5NCC(=O)N5CC[C@H](N(C)C)C5)noc4c3F)CC3(C(=O)NC(=O)NC3=O)[C@H]2[C@H](C)O1	50 (≈ 31.2 µg/mL)	0.18	1.7	1.6 (≈ 0.999 µg/mL)	880 (≈ 550 µg/mL)	12	0.2 (≈ 0.125 µg/mL)	0.39 (≈ 0.244 µg/mL)	< 0.2	0.2	2.2 (≈ 1.37 µg/mL)	0.26
C[C@H](O)CNc1ncnn1-c1noc2c(F)c3c(cc12)CC1(C(=O)NC(=O)NC1=O)[C@H]1[C@H](C)O[C@H](C)CN31	25 (≈ 13.2 µg/mL)	0.26	1.9	0.39 (≈ 0.206 µg/mL)	200 (≈ 106 µg/mL)	–	< 0.2	0.19 (≈ 0.1 µg/mL)	0.19 (≈ 0.1 µg/mL)	< 0.2	0.63 (≈ 0.333 µg/mL)	0.12
C[C@@H]1CN2c3c(cc4c(-n5ncnc5NCC(=O)N5CC[C@@H](N(C)C)C5)noc4c3F)CC3(C(=O)NC(=O)NC3=O)[C@H]2[C@H](C)O1	25 (≈ 15.6 µg/mL)	0.08	1.3	1.6 (≈ 0.999 µg/mL)	690 (≈ 431 µg/mL)	–	0.2 (≈ 0.125 µg/mL)	0.39 (≈ 0.244 µg/mL)	< 0.2	0.2	1.6 (≈ 0.999 µg/mL)	0.26
C[C@@H]1CN2c3c(cc4c(-n5ncnc5NCCN(C)C)noc4c3F)CC3(C(=O)NC(=O)NC3=O)[C@H]2[C@H](C)O1	50 (≈ 27.1 µg/mL)	0.15	1.4	1.6 (≈ 0.866 µg/mL)	> 1000	> 400	0.78 (≈ 0.422 µg/mL)	0.39 (≈ 0.211 µg/mL)	0.39 (≈ 0.211 µg/mL)	0.78	6.2 (≈ 3.36 µg/mL)	0.53
C[C@@H]1CN2c3c(cc4c(-n5ncnc5[C@@H](C)O)noc4c3F)CC3(C(=O)NC(=O)NC3=O)[C@H]2[C@H](C)O1	50 (≈ 25 µg/mL)	0.18	1.4	0.78 (≈ 0.39 µg/mL)	920 (≈ 460 µg/mL)	–	0.39 (≈ 0.195 µg/mL)	0.78 (≈ 0.39 µg/mL)	0.78 (≈ 0.39 µg/mL)	0.78	0.78 (≈ 0.39 µg/mL)	0.23
COCCOc1ncnn1-c1noc2c(F)c3c(cc12)CC1(C(=O)NC(=O)NC1=O)[C@H]1[C@H](C)O[C@H](C)CN31	100 (≈ 52.9 µg/mL)	0.32	1.7	0.39 (≈ 0.206 µg/mL)	640 (≈ 339 µg/mL)	–	0.39 (≈ 0.206 µg/mL)	< 0.2	< 0.2	1.6	1.6 (≈ 0.847 µg/mL)	0.12
CO/N=C1\CN(c2nc3c(cc2F)c(=O)c(C(=O)O)cn3C2CC2)CC1CN (configuration not stated) [GEMIFLOXACIN]	–	–	–	–	–	3	–	–	–	–	–	–
C[C@@H]1CN2c3c(cc4c(-n5ncnc5NCCN5CCOCC5)noc4c3F)CC3(C(=O)NC(=O)NC3=O)[C@H]2[C@H](C)O1	100 (≈ 58.4 µg/mL)	0.31	2.1	1.6 (≈ 0.934 µg/mL)	150 (≈ 87.5 µg/mL)	–	< 0.2	0.39 (≈ 0.228 µg/mL)	0.39 (≈ 0.228 µg/mL)	0.78	3.5 (≈ 2.04 µg/mL)	0.11
C[C@@H]1CN2c3c(cc4c(-n5ncnc5N(C)C)noc4c3F)CC3(C(=O)NC(=O)NC3=O)[C@H]2[C@H](C)O1	100 (≈ 49.8 µg/mL)	0.67	1.7	1.6 (≈ 0.798 µg/mL)	> 1000	–	0.39 (≈ 0.194 µg/mL)	0.78 (≈ 0.389 µg/mL)	1.6 (≈ 0.798 µg/mL)	1.6	0.78 (≈ 0.389 µg/mL)	0.13
C[C@@H]1CN2c3c(cc4c(-n5ncnc5N5CCOCC5)noc4c3F)CC3(C(=O)NC(=O)NC3=O)[C@H]2[C@H](C)O1	200 (≈ 108 µg/mL)	0.66	1.6	1.6 (≈ 0.865 µg/mL)	> 1000	–	0.39 (≈ 0.211 µg/mL)	0.78 (≈ 0.422 µg/mL)	1.6 (≈ 0.865 µg/mL)	0.78	0.98 (≈ 0.53 µg/mL)	0.17
C[C@@H]1CN2c3c(cc4c(-n5ncnc5NC[C@@H](C)O)noc4c3F)CC3(C(=O)NC(=O)NC3=O)[C@H]2[C@H](C)O1	25 (≈ 13.2 µg/mL)	0.16	1.9	0.39 (≈ 0.206 µg/mL)	> 1000	12	0.098 (≈ 0.0518 µg/mL)	< 0.2	< 0.2	< 0.2	0.63 (≈ 0.333 µg/mL)	0.13
C[C@@H]1CN2c3c(cc4c(-n5ncnc5N)noc4c3F)CC3(C(=O)NC(=O)NC3=O)[C@H]2[C@H](C)O1	12 (≈ 5.65 µg/mL)	0.075	1.9	0.39 (≈ 0.183 µg/mL)	460 (≈ 216 µg/mL)	6	0.049 (≈ 0.0231 µg/mL)	0.098 (≈ 0.0461 µg/mL)	0.098 (≈ 0.0461 µg/mL)	< 0.2	< 0.2	0.11
Cc1ncnn1-c1noc2c(F)c3c(cc12)CC1(C(=O)NC(=O)NC1=O)[C@H]1[C@H](C)O[C@H](C)CN31	50 (≈ 23.5 µg/mL)	0.34	2.1	1.6 (≈ 0.751 µg/mL)	22 (≈ 10.3 µg/mL)	–	0.2 (≈ 0.0939 µg/mL)	0.55 (≈ 0.258 µg/mL)	0.78 (≈ 0.366 µg/mL)	0.39	0.39 (≈ 0.183 µg/mL)	0.098
C[C@@H]1CN2c3c(cc4c(-n5ncnc5[C@H](C)O)noc4c3F)CC3(C(=O)NC(=O)NC3=O)[C@H]2[C@H](C)O1	79 (≈ 39.5 µg/mL)	0.43	1.3	1.6 (≈ 0.799 µg/mL)	960 (≈ 479 µg/mL)	–	0.78 (≈ 0.39 µg/mL)	1.6 (≈ 0.799 µg/mL)	1.6 (≈ 0.799 µg/mL)	1.6	1.6 (≈ 0.799 µg/mL)	0.21
COCCNc1ncnn1-c1noc2c(F)c3c(cc12)CC1(C(=O)NC(=O)NC1=O)[C@H]1[C@H](C)O[C@H](C)CN31	25 (≈ 13.2 µg/mL)	0.038	2.2	0.39 (≈ 0.206 µg/mL)	6 (≈ 3.17 µg/mL)	–	0.039 (≈ 0.0206 µg/mL)	< 0.2	< 0.2	< 0.2	0.098 (≈ 0.0518 µg/mL)	0.077
C[C@@H]1CN2c3c(cc4c(-n5ncnc5C#N)noc4c3F)CC3(C(=O)NC(=O)NC3=O)[C@H]2[C@H](C)O1	6.2 (≈ 2.98 µg/mL)	0.32	2	0.39 (≈ 0.187 µg/mL)	560 (≈ 269 µg/mL)	–	< 0.2	0.39 (≈ 0.187 µg/mL)	0.39 (≈ 0.187 µg/mL)	0.39	< 0.2	0.076
Cc1ncn(-c2noc3c(F)c4c(cc23)CC2(C(=O)NC(=O)NC2=O)[C@H]2[C@H](C)O[C@H](C)CN42)n1	100 (≈ 46.9 µg/mL)	1	1.9	1.6 (≈ 0.751 µg/mL)	29 (≈ 13.6 µg/mL)	–	0.2 (≈ 0.0939 µg/mL)	0.78 (≈ 0.366 µg/mL)	3.1 (≈ 1.46 µg/mL)	0.78	0.78 (≈ 0.366 µg/mL)	0.053
C[C@@H]1CN2c3c(cc4c(-n5ncnc5NCCO)noc4c3F)CC3(C(=O)NC(=O)NC3=O)[C@H]2[C@H](C)O1	25 (≈ 12.9 µg/mL)	0.27	1.6	0.39 (≈ 0.201 µg/mL)	625 (≈ 322 µg/mL)	–	0.39 (≈ 0.201 µg/mL)	0.39 (≈ 0.201 µg/mL)	0.39 (≈ 0.201 µg/mL)	< 0.2	0.78 (≈ 0.401 µg/mL)	0.14
